For twelve molecules, IC50 results are on record in US10280169B2, “Biaryl bruton's tyrosine kinase inhibitors” (BIOGEN MA INC., priority 2013, dated 2019).

In general, IC50 refers to the point on the concentration scale where inhibition reaches its midpoint.

T1 sequence (Q06187 whole entry): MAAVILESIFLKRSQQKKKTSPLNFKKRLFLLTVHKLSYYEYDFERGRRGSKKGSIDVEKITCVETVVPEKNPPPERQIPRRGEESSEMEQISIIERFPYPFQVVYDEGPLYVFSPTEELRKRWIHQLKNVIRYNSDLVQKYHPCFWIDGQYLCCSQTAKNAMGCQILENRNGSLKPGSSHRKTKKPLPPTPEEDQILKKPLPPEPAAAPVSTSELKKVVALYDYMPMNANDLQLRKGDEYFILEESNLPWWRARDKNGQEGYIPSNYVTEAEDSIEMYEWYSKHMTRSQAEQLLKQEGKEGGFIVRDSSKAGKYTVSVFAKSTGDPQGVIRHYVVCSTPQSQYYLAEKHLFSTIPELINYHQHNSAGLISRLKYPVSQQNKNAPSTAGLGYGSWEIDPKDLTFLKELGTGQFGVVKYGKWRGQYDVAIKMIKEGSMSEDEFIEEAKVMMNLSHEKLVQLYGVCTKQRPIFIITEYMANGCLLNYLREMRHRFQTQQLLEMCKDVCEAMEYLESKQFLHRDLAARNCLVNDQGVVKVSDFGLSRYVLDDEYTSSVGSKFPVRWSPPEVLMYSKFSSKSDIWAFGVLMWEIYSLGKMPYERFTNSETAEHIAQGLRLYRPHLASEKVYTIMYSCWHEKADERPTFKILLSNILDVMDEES

The assay addresses T1, BTK (Homo sapiens, UniProt Q06187).
T1 construct: purchased Upstate 14-552
Briefly: In vitro BTK kinase assay: BTK-POLYGAT-LS assay. The class given is biochemical. Conditions: 10 uM ATP, read-out: IC50 (10 uMATP).
For the molecule `O=C(NC1CCCc2cc(-c3ncnc4[nH]ncc34)ccc21)c1ccc(C(F)(F)F)cn1` (stereo not drawn) [Example I-147, N-(6-(1H-pyrazolo[3,4-d]pyrimidin-4-yl)-1,2,3,4-tetrahydronaphthalen-1-yl)-5-(trifluoromethyl)picolinamide], the concentration for half-maximal inhibition (IC50) lay within 1 to 10 µM.

With `CC(C)C(NC(=O)c1cc2c(s1)CCCC2)c1ccc(-c2ncnc3[nH]ncc23)cc1` (stereo not drawn) [Example I-149, N-(1-(4-(1H-pyrazolo[3,4-d]pyrimidin-4-yl)phenyl)-2-methylpropyl)-4,5,6,7-tetrahydrobenzo[b]thiophene-2-carboxamide], the IC50 was 1 to 10 µM.

In the case of `CC(C)(C)c1ccnc(C(=O)NC2CCCc3cc(-c4ncnc5[nH]ncc45)ccc32)c1` (stereo not drawn) [Example I-150, N-(6-(1H-pyrazolo[3,4-d]pyrimidin-4-yl)-1,2,3,4-tetrahydronaphthalen-1-yl)-4-(tert-butyl)picolinamide], the IC50 lay in the range of 1 to 10 µM.

For `NC(=O)C(NC(=O)c1cc2c(s1)CCCC2)c1ccc(-c2ncnc3[nH]ncc23)cc1` (stereo not drawn) [Example I-151, N-(1-(4-(1H-pyrazolo[3,4-d]pyrimidin-4-yl)phenyl)-2-amino-2-oxoethyl)-4,5,6,7-tetrahydrobenzo[b]thiophene-2-carboxamide], the IC50 lay in the range of 1 to 10 µM.

Regarding `CC(C)(C)c1ncc(C(=O)N[C@H]2CCCc3cc(-c4ccnc5[nH]ncc45)cnc32)s1` [Example I-152, (S)—N-(3-(1H-pyrazolo[3,4-b]pyridin-4-yl)-5,6,7,8-tetrahydroquinolin-8-yl)-2-(tert-butyl)thiazole-5-carboxamide], the IC50 was 1 to 10 µM.

`Cc1cc(-c2ncnc3[nH]ccc23)cnc1CNC(=O)c1cc2c(s1)CCCC2` [Example I-153, N-((3-methyl-5-(7H-pyrrolo[2,3-d]pyrimidin-4-yl)pyridin-2-yl)methyl)-4,5,6,7-tetrahydrobenzo[b]thiophene-2-carboxamide]: the IC50 lay in the range of 0.01 to 0.099 µM.

Take `CC(C)(C)c1ccc(C(=O)NC2CCc3cc(-c4ncnc5[nH]ccc45)ccc32)cc1` (stereo not drawn) [Example I-154, N-(5-(7H-pyrrolo[2,3-d]pyrimidin-4-yl)-2,3-dihydro-1H-inden-1-yl)-4-(tert-butyl)benzamide]: the IC50 is above 10 µM.

For the molecule `Cn1cc(-c2cc3c(-c4ccc5c(c4)CCCC5NC(=O)c4cnn(C(C)(C)C)c4)ncnc3[nH]2)cn1` (stereo not drawn) [Example I-156, 1-(tert-butyl)-N-(6-(6-(1-methyl-1H-pyrazol-4-yl)-7H-pyrrolo[2,3-d]pyrimidin-4-yl)-1,2,3,4-tetrahydronaphthalen-1-yl)-1H-pyrazole-4-carboxamide], the IC50 is below 0.01 µM.

As to `Cn1cc(-c2cc3c(-c4ccc5c(c4)CCCC5NC(=O)N4CCC(C(C)(C)C)C4)ncnc3[nH]2)cn1` (stereo not drawn) [Example I-157, 3-(tert-butyl)-N-(6-(6-(1-methyl-1H-pyrazol-4-yl)-7H-pyrrolo[2,3-d]pyrimidin-4-yl)-1,2,3,4-tetrahydronaphthalen-1-yl)pyrrolidine-1-carboxamide], the IC50 was below 0.01 µM.

`CC(C)OC1CN(C(=O)NC2CCCc3cc(-c4ncnc5[nH]c(-c6cnn(C)c6)cc45)ccc32)C1` (stereo not drawn) [Example I-158, 3-isopropoxy-N-(6-(6-(1-methyl-1H-pyrazol-4-yl)-7H-pyrrolo[2,3-d]pyrimidin-4-yl)-1,2,3,4-tetrahydronaphthalen-1-yl)azetidine-1-carboxamide]: the IC50 was below 0.01 µM.

Turning to `Cn1cc(-c2cc3c(-c4ccc5c(c4)CCCC5NC(=O)N4CC(OC(C)(C)C)C4)ncnc3[nH]2)cn1` (stereo not drawn) [Example I-159, 3-(tert-butoxy)-N-(6-(6-(1-methyl-1H-pyrazol-4-yl)-7H-pyrrolo[2,3-d]pyrimidin-4-yl)-1,2,3,4-tetrahydronaphthalen-1-yl)azetidine-1-carboxamide], the half-inhibitory concentration (IC50) is below 0.01 µM.

As for `Cn1cc(-c2cc3c(-c4ccc5c(c4)CCCCC5NC(=O)c4cnn(C(C)(C)C)c4)ncnc3[nH]2)cn1` (stereo not drawn) [Example I-160, 1-(tert-butyl)-N-(2-(6-(1-methyl-1H-pyrazol-4-yl)-7H-pyrrolo[2,3-d]pyrimidin-4-yl)-6,7,8,9-tetrahydro-5H-benzo[7]annulen-5-yl)-1H-pyrazole-4-carboxamide], the IC50 was below 0.01 µM.
